Patent US20240041042A1, “1-(PYRIDYL)-5-AZINYLPYRAZOLE DERIVATIVES, AND THEIR USE FOR CONTROL OF UNDESIRED PLANT GROWTH” (Bayer Aktiengesellschaft, priority 2020, published 2024)
Like-named read-outs stand apart in the source and are kept apart here.

Tests used:
Assay type in all cases: in vivo
[1] = test system: Pharbitis purpurea (PHBPU); test: Post-emergence herbicidal action against PHBPU; settings: dosage 320 g/ha
Summary of the method: (§1)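 Rates were 320 g/ha or below, applied as aqueous WP/EC spray with 0.5% additive (600 l/ha) onto one-leaf-stage plants. About 3 weeks later in the greenhouse, damage was scored visually against untreated plants on a 0–100% scale, where 100% means plants died.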

[2] = test system: Oryza sativa (ORYSA); settings: crop plant compatibility, effect in comparison to untreated controls
Summary of the method: (§2)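 Test crops were treated 2 to 3 weeks after sowing, once they reached one leaf, by spraying compound in water with 0.5% additive at 600 l/ha. Visual scoring compared them with untreated controls roughly 3 weeks on, and appendices a, b and c denote different doses.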

[3] = test system: Zea mays (ZEAMX); settings: crop plant compatibility, effect vs untreated controls
Summary of the method: as §2

[4] = test system: Triticum aestivum (TRZAS); settings: crop plant compatibility, 80 g/ha, effect vs untreated controls
Summary of the method: as §2

[5] = test system: Zea mays (ZEAMX); settings: pre-emergence, crop plant compatibility, in comparison to untreated controls
Summary of the method: (§3)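 Crop injury rated visually in percent against untreated plants roughly 3 weeks after treatment (0% no effect, 100% plants dead). Compounds, as WP or EC with 0.5% additive in 600 l/ha water, were applied to the covering soil right after sowing; greenhouse growth. Suffixes a, b, c denote different dosages.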

[6] = test system: Glycine max (GLXMA); settings: pre-emergence, crop plant compatibility, in comparison to untreated controls
Summary of the method: as §3

[7] = test system: Brassica napus (BRSNW); settings: crop plant compatibility, in comparison to untreated controls
Summary of the method: as §3

[8] = test system: Echinochloa crus-galli (ECHCG); test: Post-emergence herbicidal action against ECHCG; settings: dosage 320 g/ha
Summary of the method: as §1

[9] = test system: Oryza sativa (ORYSA); settings: pre-emergence, crop plant compatibility, in comparison to untreated controls
Summary of the method: as §3

[10] = test system: Setaria viridis (SETVI); test: Pre-emergence herbicidal action against SETVI; settings: dosage 320 g/ha
Summary of the method: (§4)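 Dosages of 320 g/ha or less; pre-emergence; WP or EC in aqueous spray, 0.5% additive, 600 l/ha; greenhouse; visual % effect after ~3 wk relative to control pots.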

[11] = test system: Viola tricolor (VIOTR); test: Pre-emergence herbicidal action against VIOTR; settings: 320 g/ha, Viola tricolor
Summary of the method: as §4

[12] = test system: Amaranthus retroflexus (AMARE); test: Pre-emergence herbicidal action against AMARE; settings: 320 g/ha, visual scoring after about 3 weeks vs untreated controls
Summary of the method: as §4

[13] = test system: Avena fatua (AVEFA); test: Post-emergence herbicidal action against AVEFA; settings: 320 g/ha, visual rating about 3 weeks after treatment
Summary of the method: as §1

[14] = test system: Abutilon theophrasti (ABUTH); test: Pre-emergence herbicidal action against ABUTH; settings: Dosage column 320 g/ha (title prints 3200 g/ha); scored visually after about 3 weeks; 100% = plants have died
Summary of the method: as §4

[15] = test system: Amaranthus retroflexus (AMARE); test: Post-emergence herbicidal action against AMARE
Summary of the method: as §1

[16] = test system: Polygonum convolvulus (POLCO); test: Post-emergence herbicidal action against POLCO; settings: dosage 320 g/ha
Summary of the method: as §1

[17] = test system: Triticum aestivum (TRZAS); settings: pre-emergence, 80 g/ha, crop plant compatibility, in comparison to untreated controls
Summary of the method: as §3

[18] = test system: Lolium rigidum (LOLRI); test: Pre-emergence herbicidal action against LOLRI; settings: dosage 320 g/ha
Summary of the method: as §4

[19] = test system: Setaria viridis (SETVI); test: Post-emergence herbicidal action against SETVI; settings: dosage 320 g/ha
Summary of the method: as §1

[20] = test system: Lolium rigidum (LOLRI); test: Post-emergence herbicidal action against LOLRI; settings: dosage 320 g/ha
Summary of the method: as §1

[21] = 320 g/ha, visual rating about 3 weeks after treatment

Post-emergence action against ORYSA in % ([2]; 80 g/ha) | Post-emergence action against ORYSA in % ([2]; 320 g/ha) | Post-emergence action against ZEAMX in % ([3]; 80 g/ha) | Post-emergence action against ZEAMX in % ([3]; 320 g/ha) | Post-emergence action against TRZAS in % [4] | Pre-emergence action against ZEAMX in % ([5]; 80 g/ha) | Pre-emergence action against ZEAMX in % ([5]; 320 g/ha) | Pre-emergence action against GLXMA in % ([6]; 80 g/ha) | Pre-emergence action against BRSNW in % ([7]; 80 g/ha) | Pre-emergence action against BRSNW in % ([7]; 320 g/ha) | Pre-emergence action against ORYSA in % ([9]; 80 g/ha) | Pre-emergence action against ORYSA in % ([9]; 320 g/ha) | SMILES | Post-emergence action against PHBPU in % [1] | Post-emergence action against ECHCG in % [8] | Post-emergence action against AMARE in % [15, 21] | other results
0% | 0% | 0% | 0% | 0% | 0% | 0% | 0% | 0% | 20% | – | – | COc1cccnc1-n1nc(OCC(=O)O)c(Br)c1-c1ccc(F)nc1 [Example I-363] | 80% | 80% | – | Pre-emergence action against GLXMA in % ([6]; 320 g/ha): 0%
0% | 0% | 0% | 0% | 0% | 0% | 10% | 0% | 0% | – | 0% | 20% | COc1cccnc1-n1nc(OCC(=O)O)c(Cl)c1-c1ccc(F)nc1 [Example I-329] | 80% | – | – | –
0% | 0% | – | – | – | 0% | – | 20% | – | – | 0% | – | O=C(COc1nn(-c2ccccn2)c(-c2ccc(F)nc2)c1Br)NS(=O)(=O)CC(F)(F)F [Example I-60] | – | 80% | 80% | Pre-emergence action against SETVI in % [10]: 80%; Pre-emergence action against VIOTR in % [11]: 80%; Pre-emergence action against AMARE in % [12]: 90%; Post-emergence action against AVEFA in % [13]: 90%; Pre-emergence action against ABUTH [14]: 80%; Post-emergence action against AMARE in % ([15]; 80 g/ha, visual rating about 3 weeks after treatment vs untreated controls (100% = plants have died, 0% = like control plants)): 80%; Post-emergence action against POLCO in % [16]: 80%; Pre-emergence action against TRZAS in % [17]: 0%; Pre-emergence action against LOLRI in % [18]: 80%
0% | 0% | 20% | 20% | 20% | 0% | 10% | 20% | 0% | 20% | 0% | 0% | CCOC(=O)COc1nn(-c2ncccc2OC)c(-c2ccc(F)nc2)c1Br [Example I-371] | 80% | – | 80% | Post-emergence action against SETVI in % [19]: 80%; Post-emergence action against LOLRI in % [20]: 90%
